Assay results taken from patent publication US20160185735A1, “FATTY ACID ANALOGS AND THEIR USE” (UNIVERSITY OF PITTSBURGH - OF THE COMMONWEALTH SYSTEM OF …, priority 2013, published 2016).
“And” between values parts separate entries of the source, which are not always exact repeats. Equal entries are not always repeated.

Legend:
PCa cells = conditions: cited from earlier work
[1] = tested on: Ehrlich ascites tumor cells; conditions: injected directly into the peritoneal fluid; cited from earlier work
[2] = Tissue biodistribution of 18F-labeled tracers postinjection; format: in vivo, mice (ICR strain); conditions: for background muscle uptake: 0.5 and 2 hours postinjection
Procedure: FIGS. 11 and 12 are graphs showing biodistribution of ^18F-labeled FTO (“FTO,” left bar, Compound I) and the ^18F-labeled oleate analog (“clicked FTO,” right bar, compound Va) at 0.5 hours (FIG. 11) and 2 hours (FIG. 12) postinjection into mice (ICR strain). Similar to ^18F-FTO, the ^18F-labeled oleate analog has low background muscle uptake at 0.5 and 2 hours postinjection.
FIG. 14 is a table showing tissue biodistribution of ^18F-labeled-Oleate analog (compound Va) in mice (ICR strain).

PC3 cells = assay: Post-fix click fluorescence microscopy of alkyne fatty acid uptake; format: cell-based; conditions: fixed, permeated, stained with sulfo-Cy3-azide
Procedure: Cells were treated with Alkyn-4-Thia-Palmitate, Alkyn-Palmitate, or control. The cells were then fixed, and incubated with sulfo-Cy3 azide to detect the trapped fatty acid analog.
This example illustrates in vitro analysis of fatty acid metabolism using the disclosed compounds. Cells were incubated with a fatty acid analog including a terminal alkyne group, fixed, and then treated with sulfo-Cy3-azide. The sulfo-Cy3-azide undergoes a click chemistry reaction (a 1,3-dipolar cycloaddition) with the terminal […] of the fatty acid homolog in the fixed cells to form a triazole ring linked to the fatty acid analog. The Cy3 moiety is then detected by fluorescence microscopy.
• 1. Place approximately 500 PC3 cells on coverslip in 24 well plates. • 2. Starve the cell with 250 μL of glucose free media overnight. • 3. Replace the media before the experiment with fresh 250 μL of glucose free media. • 4. Add alkyne fatty acid to the selected wells with coverslip and 1% BSA 10 μL in the control well and incubate at 37° C. for 1 or 2 h. • 5. After respective time wash the cells with 500 μL of 1% BSA for 3×5 min to remove extra fatty acid. • 6. Fix the cells with 300 μL of 4% paraformaldehyde (PFA) for 15 min • 7. Wash the cells once with PBS. • 8. […] Mount the coverslip and analyze by fluorescence microscopy. […]

[3] = tested on: β-oxidation (myocardial uptake); assay: Blockage of β-oxidation / myocardial uptake with etomoxir; format: in vivo, mice
Description: FIG. 13 is a graph showing the blockage of β-oxidation of ^18F-labeled FTO (“FTO,” left bar, Compound I) and the ^18F-labeled oleate analog (“clicked FTO,” right bar, compound Va) with etomoxir.

[4] = tested on: β-oxidation in heart tissue; assay: Folch-type extraction of 18F signal in heart tissue (oxidized vs unoxidized analog); format: in vivo, mice (ICR strain)
Description: FIGS. 9-10 are graphs showing the distribution of ^18F signal in heart tissue taken from fasted mice (ICR strain) administered the ^18F-labeled oleate analog (compound Va). Folch-type extraction was used to separate “Organic” (unoxidized analog) from “Pellets” and “Aqueous” (oxidized fatty acid metabolites).

PC3 xenografts = assay: Small animal PET/CT imaging of tracer uptake in PC3 xenografts; format: in vivo, mice; conditions: 2 hours postinjection, listed as 18F-clicked-FTO
Procedure: Small animal PET/CT imaging was performed as previously described (Sprague et al., Clin. Cancer. Res. 2004, 10 (24), 8674-8682). Briefly, the ^18F-clicked palmitate or ^18F-clicked oleate analog (3.7 MBq) was injected via tail vein and the mouse was imaged at 2 hours postinjection. Static imaging was performed on an Inveon PET/CT scanner (Constantinescu et al., Phys. Med. Biol., 54, 2885-2899, 2009; Kemp et al., Phys. Med. Biol., 54, 2359-2376, 2009) with 10 min PET scanning followed by a 5 min CT. Inveon Research Workplace (IRW) from Siemens Healthcare Global was used for co-registration of PET/CT images and quantification of regions of interest (ROI). PET/CT images were reconstructed with maximum a posteriori (MAP), 3D ordered-subset expectation maximization (OSEM3D), 2D ordered-subset expectation maximization (OSEM2D), and filtered back projection (2DFBP). Standard uptake values (SUV) were generated by measuring ROI from PET/CT images and calculated with the formula: SUV=[nCi/ml]×[animal weight (g)]/injected dose [nCi]. FDG was injected intraperitoneally 36 hours pre-injection. 2-DG was injected intraperitoneally 4 hours pre-injection. […]

In the case of `[3H]C(CCCCCC)C([3H])CCCCCCCC(=O)O` (centres unmarked) [^3H-palmitic acid], the “uptake in PCa cells compared with 2-DG” value (PCa cells) is listed as “dominant uptake”.

In the case of ^14C-palmitate, the “incorporation into Ehrlich ascites tumor cells / cellular lipids” value [1] is given as 40-50%.

In the case of `O=C(O)CCSCCCC/C=C\CCCCCCCC[18F]` [FTO, [^18F]Fluoro-4-thia-oleic acid, reference compound], the background muscle uptake [2] is reported as “low”.

With alkyn-4-thia-palmitate the “uptake by PCa cells” value (PC3 cells) was “avidly take up”.

For `O=C[C@H](O)[C@@H](O)[C@H](O)[C@H](O)CO` [^14C-glucose], the “incorporation into Ehrlich ascites tumor cells / cellular lipids” value [1] is listed as 1%.

In the case of `O=C(O)CCSCCCC/C=C\CCCCCCCc1cn(CC[18F])nn1` [compound Va, (Z)-3-((13-(1-(2-[^18F]fluoroethyl)-1H-1,2,3-triazol-4-yl)tridec-5-en-1-yl)thio)propanoic acid], the “myocardial uptake, blockage with etomoxir” value [3] is reported as “can be blocked with etomoxir”, the “oxidation of the analog in heart tissue over time” value ([4]; fasted mice, Organic (unoxidized) vs Pellets and Aqueous (oxidized metabolites)) is reported as “more of the fatty acid analog was oxidized” and the background muscle uptake [2] is reported as “low”. For the same molecule, the “in vivo defluorination relative to 18F-FTO” value ([2]; 0.5 hours postinjection) was “significantly less”, the “in vivo defluorination relative to FTO” value ([2]; 2 hours postinjection) was “significantly inhibited” and the “myocardial uptake relative to 18F-FTO” value ([2]; mice, postinjection) was “lower than the ^18F-FTO”. For the same molecule, the “uptake in the tumor (SUV)” value (PC3 xenografts; 2-DG and FDG treated mice, 3.7 MBq via tail vein) was 0.21 and 0.22 and the “uptake in the tumor (SUV)” value (PC3 xenografts; control group not treated with 2-DG and FDG) was 0.15 and 0.18.

For `CCOC(=O)[C@@]1(CCCCCCOc2ccc(Cl)cc2)CO1` [Etomoxir, reference compound], the “effect on extent of β-oxidation of the 18F-labeled oleate analog in heart tissue” value ([4]; fasted mice given compound Va) was “reduced the extent of the β-oxidation”.
